Experimental data: ChEMBL document CHEMBL4616696, “Construction and Evaluation of Molecular Models: Guide and Design of Novel SE Inhibitors” (ACS Med Chem Lett, 2020)
Values after ≈ are worked out from the molar mass of the structure shown. Active and inactive are the calls of the source. The rule behind the calls is not given here.

Experiments:
[1] = tested on: Candida albicans; assay: Antifungal activity against Candida albicans ATCC 10231 assessed as reduction in fungal growth by NCCLS method; assay type: functional
[2] = tested on: Candida tropicalis; assay: Antifungal activity against Candida tropicalis ATCC 1369 assessed as reduction in fungal growth by NCCLS method; assay type: functional
[3] = tested on: Nakaseomyces glabratus; assay: Antifungal activity against Candida glabrata ATCC 0001 assessed as reduction in fungal growth by NCCLS method; assay type: functional
[4] = tested on: Pichia kudriavzevii; assay: Antifungal activity against Candida krusei ATCC 6258 assessed as reduction in fungal growth by NCCLS method; assay type: functional
[5] = tested on: Aspergillus fumigatus; assay: Antifungal activity against Aspergillus fumigatus KM8001 assessed as reduction in fungal growth by NCCLS method; assay type: functional
[6] = tested on: Candida albicans; assay: Antifungal activity against fluconazole-resistant Candida albicans CaR assessed as reduction in fungal growth by NCCLS method; assay type: functional
[7] = tested on: Candida albicans; assay: Antifungal activity against fluconazole-resistant Candida albicans 17# assessed as reduction in fungal growth by NCCLS method; assay type: functional
[8] = tested on: Candida albicans; assay: Antifungal activity against fluconazole-resistant Candida albicans 901 assessed as reduction in fungal growth by NCCLS method; assay type: functional
[9] = tested on: Candida albicans; assay: Antifungal activity against fluconazole-resistant Candida albicans 632 assessed as reduction in fungal growth by NCCLS method; assay type: functional
[10] = tested on: Candida albicans; assay: Antifungal activity against fluconazole-resistant Candida albicans 904 assessed as reduction in fungal growth by NCCLS method; assay type: functional
[11] = target: T1, Squalene epoxidase ERG1 (Candida albicans) (UniProt Q92206); assay: Inhibition of SE in Candida albicans ATCC SC5314 assessed as inhibition of ergosterol biosynthesis by measuring ergosterol content at 0.125 ug/ml incubated for 16 hrs by LC-MS analysis; set-up: scale not given: the % may be the effect or the level left
T1 sequence (whole entry): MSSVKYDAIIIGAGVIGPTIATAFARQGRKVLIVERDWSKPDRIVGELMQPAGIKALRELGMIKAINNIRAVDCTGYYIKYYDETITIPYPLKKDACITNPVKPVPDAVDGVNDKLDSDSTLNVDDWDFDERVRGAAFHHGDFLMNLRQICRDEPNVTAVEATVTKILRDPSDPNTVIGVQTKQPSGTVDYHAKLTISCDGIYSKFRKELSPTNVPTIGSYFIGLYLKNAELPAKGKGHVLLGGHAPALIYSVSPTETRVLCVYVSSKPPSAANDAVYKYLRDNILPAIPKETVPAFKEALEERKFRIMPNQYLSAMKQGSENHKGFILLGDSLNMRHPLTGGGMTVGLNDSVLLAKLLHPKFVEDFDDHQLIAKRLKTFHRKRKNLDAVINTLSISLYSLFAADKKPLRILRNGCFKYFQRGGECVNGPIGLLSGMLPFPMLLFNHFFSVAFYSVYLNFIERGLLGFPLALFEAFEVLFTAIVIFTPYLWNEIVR

[12] = target: T1, Squalene epoxidase ERG1 (Candida albicans); assay: Inhibition of SE in Candida albicans ATCC SC5314 assessed as inhibition of ergosterol biosynthesis by measuring ergosterol content at 0.5 ug/ml incubated for 16 hrs by LC-MS analysis; set-up: scale not given: the % may be the effect or the level left
[13] = target: T1, Squalene epoxidase ERG1 (Candida albicans); assay: Inhibition of SE in Candida albicans ATCC SC5314 assessed as inhibition of ergosterol biosynthesis by measuring ergosterol content at 4 ug/ml incubated for 16 hrs by LC-MS analysis; set-up: scale not given: the % may be the effect or the level left
[14] = target: T1, Squalene epoxidase ERG1 (Candida albicans); assay: Inhibition of SE in Candida albicans ATCC SC5314 assessed as inhibition of ergosterol biosynthesis by measuring increase in squalene content at 0.125 ug/ml incubated for 16 hrs by LC-MS analysis relative to control; set-up: scale not given: the % may be the effect or the level left
[15] = target: T1, Squalene epoxidase ERG1 (Candida albicans); assay: Inhibition of SE in Candida albicans ATCC SC5314 assessed as inhibition of ergosterol biosynthesis by measuring increase in squalene content at 0.5 ug/ml incubated for 16 hrs by LC-MS analysis relative to control; set-up: scale not given: the % may be the effect or the level left
[16] = target: T1, Squalene epoxidase ERG1 (Candida albicans); assay: Inhibition of SE in Candida albicans ATCC SC5314 assessed as inhibition of ergosterol biosynthesis by measuring increase in squalene content at 4 ug/ml incubated for 16 hrs by LC-MS analysis relative to control; set-up: scale not given: the % may be the effect or the level left
[17] = target: T1, Squalene epoxidase ERG1 (Candida albicans); assay: Inhibition of SE in Candida albicans ATCC SC5314 assessed as inhibition of ergosterol biosynthesis by measuring eburicol content at 0.5 ug/ml incubated for 16 hrs by LC-MS analysis; set-up: scale not given: the % may be the effect or the level left
[18] = target: T1, Squalene epoxidase ERG1 (Candida albicans); assay: Inhibition of SE in Candida albicans ATCC SC5314 assessed as inhibition of ergosterol biosynthesis by measuring eburicol content at 4 ug/ml incubated for 16 hrs by LC-MS analysis; set-up: scale not given: the % may be the effect or the level left
[19] = target: T1, Squalene epoxidase ERG1 (Candida albicans); assay: Inhibition of SE in Candida albicans ATCC SC5314 assessed as inhibition of ergosterol biosynthesis by measuring unknown sterol content at 0.125 ug/ml incubated for 16 hrs by LC-MS analysis; set-up: scale not given: the % may be the effect or the level left
[20] = target: T1, Squalene epoxidase ERG1 (Candida albicans); assay: Inhibition of SE in Candida albicans ATCC SC5314 assessed as inhibition of ergosterol biosynthesis by measuring unknown sterol content at 0.5 ug/ml incubated for 16 hrs by LC-MS analysis; set-up: scale not given: the % may be the effect or the level left
[21] = target: T1, Squalene epoxidase ERG1 (Candida albicans); assay: Inhibition of SE in Candida albicans ATCC SC5314 assessed as inhibition of ergosterol biosynthesis by measuring unknown sterol content at 4 ug/ml incubated for 16 hrs by LC-MS analysis; set-up: scale not given: the % may be the effect or the level left
[22] = tested on: Candida albicans; assay: Antifungal activity against Candida albicans ATCC SC5314 assessed as reduction in fungal growth density at 5 and 50 nmol/ml; assay type: functional, organism-based
[23] = tested on: Candida albicans; assay: Antifungal activity against Candida albicans ATCC SC5314 assessed as reduction in cell division at 4 ug/ml measured upto 48 hrs by TEM analysis; assay type: functional, organism-based
[24] = tested on: Candida albicans; assay: Antifungal activity against Candida albicans ATCC SC5314 assessed as cell wall disruption at 4 ug/ml measured upto 48 hrs by TEM analysis; assay type: functional, organism-based
[25] = tested on: Candida albicans; assay: Antifungal activity against Candida albicans ATCC SC5314 assessed as cell membrane disruption at 4 ug/ml measured upto 48 hrs by TEM analysis; assay type: functional, organism-based
[26] = Stability in human plasma assessed as compound remaining incubated for 60 mins; assay type: ADME, cell-free; settings: read-out: Stability
[27] = Stability in human plasma assessed as compound remaining incubated for 120 mins; assay type: ADME, cell-free; settings: read-out: Stability
[28] = tested on: Candida albicans; assay: Antifungal activity against Candida albicans ATCC SC5314 assessed as exudation of internal materials from cells at 4 ug/ml measured upto 48 hrs by TEM analysis; assay type: functional, organism-based

`CN(C/C=C/c1ccccc1)Cc1cccc2ccccc12` [NAFTIFINE] gave an MIC [1] of 0.5 µg/mL (≈ 1.74 µM), an MIC [2] of 0.5 µg/mL (≈ 1.74 µM) and an MIC [3] of 0.5 µg/mL (≈ 1.74 µM). For the same compound, the MIC [4] was 1 µg/mL (≈ 3.48 µM), the MIC [5] was greater than 16 µg/mL and the MIC [6] was 4 µg/mL (≈ 13.9 µM). It also gave an MIC [7] of 8 µg/mL (≈ 27.8 µM), an MIC [8] greater than 16 µg/mL and an MIC [9] of 8 µg/mL (≈ 27.8 µM). The MIC [10] was 8 µg/mL (≈ 27.8 µM), the Activity [11] was 83.6% and the Activity [12] was 62.9%. For the same compound, the Activity [13] was 28.4%, the Activity [14] was 14.8% and the Activity [15] was 31.5%. The Activity [16] was 64.5%, the Activity [17] was 0.7% and the Activity [18] was 1.7%. For the same compound, the Activity [19] was 1.6%, the Activity [20] was 4.9% and the Activity [21] was 5.4%.

`CN(CC(=O)Nc1ccccc1)C(=O)c1ccc2ccccc2c1` gave an MIC [1] of 0.5 µg/mL (≈ 1.57 µM), an MIC [2] of 0.5 µg/mL (≈ 1.57 µM) and an MIC [3] of 2 µg/mL (≈ 6.28 µM). It also gave an MIC [4] of 1 µg/mL (≈ 3.14 µM) and an MIC [5] greater than 16 µg/mL.

For `CN(CC(=O)NCc1ccccc1)C(=O)c1cccc2ccccc12`, the MIC [1] was 0.125 µg/mL (≈ 0.376 µM), the MIC [2] was 0.5 µg/mL (≈ 1.5 µM) and the MIC [3] was 0.25 µg/mL (≈ 0.752 µM). The MIC [4] was 0.125 µg/mL (≈ 0.376 µM), the MIC [5] was 4 µg/mL (≈ 12 µM) and the MIC [6] was 4 µg/mL (≈ 12 µM). For the same compound, the MIC [7] was 4 µg/mL (≈ 12 µM), the MIC [8] was 4 µg/mL (≈ 12 µM) and the MIC [9] was 8 µg/mL (≈ 24.1 µM). For the same compound, the MIC [10] was greater than 16 µg/mL, the Activity [22] was “Active” and the Activity [23] was “Active”. For the same compound, the Activity [24] was “Active”, the Activity [25] was “Active” and the remaining at 1 h [26] was 94.5%. It also gave a remaining at 2 h [27] of 91.6%, an Activity [11] of 87.4% and an Activity [12] of 63.9%. For the same compound, the Activity [13] was 31.7%, the Activity [14] was 9.8% and the Activity [15] was 29.5%. The Activity [16] was 58.9%, the Activity [17] was 1.6% and the Activity [18] was 2.3%. For the same compound, the Activity [19] was 2.8%, the Activity [20] was 5% and the Activity [21] was 7.1%. The Activity [28] was “Active”.

Work on `CN(CC(=O)Nc1ccccc1)C(=O)c1ccc2c(c1)OCCO2` yielded an MIC [1] of 1 µg/mL (≈ 3.06 µM), an MIC [2] of 0.5 µg/mL (≈ 1.53 µM) and an MIC [3] of 0.5 µg/mL (≈ 1.53 µM). The MIC [4] was 2 µg/mL (≈ 6.13 µM) and the MIC [5] was 8 µg/mL (≈ 24.5 µM).

`CN(CC(=O)NCc1ccccc1)C(=O)c1cccc2c1OCCO2` showed an MIC [1] of 0.25 µg/mL (≈ 0.734 µM), an MIC [2] of 0.5 µg/mL (≈ 1.47 µM) and an MIC [3] of 0.25 µg/mL (≈ 0.734 µM). The MIC [4] was 0.25 µg/mL (≈ 0.734 µM), the MIC [5] was 8 µg/mL (≈ 23.5 µM) and the MIC [6] was 4 µg/mL (≈ 11.8 µM). It also gave an MIC [7] greater than 16 µg/mL, an MIC [8] greater than 16 µg/mL and an MIC [9] greater than 16 µg/mL. For the same compound, the MIC [10] was 8 µg/mL (≈ 23.5 µM), the remaining at 1 h [26] was 87.3% and the remaining at 2 h [27] was 83.5%.

Compound `CN(CC(=O)NCc1ccccc1)C(=O)c1ccc2c(c1)OCCO2` has an MIC [1] of 0.5 µg/mL (≈ 1.47 µM), an MIC [2] of 0.5 µg/mL (≈ 1.47 µM) and an MIC [3] of 2 µg/mL (≈ 5.88 µM). It also gave an MIC [4] of 0.5 µg/mL (≈ 1.47 µM) and an MIC [5] greater than 16 µg/mL.

`CN(CC(=O)NCc1ccccc1)C(=O)c1ccc2ccccc2c1` gave an MIC [1] of 0.5 µg/mL (≈ 1.5 µM), an MIC [2] of 0.25 µg/mL (≈ 0.752 µM) and an MIC [3] of 0.25 µg/mL (≈ 0.752 µM). For the same compound, the MIC [4] was 0.5 µg/mL (≈ 1.5 µM) and the MIC [5] was 8 µg/mL (≈ 24.1 µM).

Work on `CN(CC(=O)Nc1ccccc1)C(=O)c1cccc2c1OCCO2` yielded an MIC [1] of 0.5 µg/mL (≈ 1.53 µM), an MIC [2] of 1 µg/mL (≈ 3.06 µM) and an MIC [3] of 1 µg/mL (≈ 3.06 µM). It also gave an MIC [4] of 0.5 µg/mL (≈ 1.53 µM) and an MIC [5] greater than 16 µg/mL.

In the case of `CN(CC(=O)Nc1ccccc1)C(=O)c1cccc2ccccc12`, the MIC [1] is reported as 0.25 µg/mL (≈ 0.785 µM), the MIC [2] is reported as 0.5 µg/mL (≈ 1.57 µM) and the MIC [3] is reported as 0.5 µg/mL (≈ 1.57 µM). The MIC [4] was 0.25 µg/mL (≈ 0.785 µM), the MIC [5] was 8 µg/mL (≈ 25.1 µM) and the MIC [6] was 8 µg/mL (≈ 25.1 µM). It also gave an MIC [7] greater than 16 µg/mL, an MIC [8] of 4 µg/mL (≈ 12.6 µM) and an MIC [9] greater than 16 µg/mL. It also gave an MIC [10] greater than 16 µg/mL.

With `OC(Cn1cncn1)(Cn1cncn1)c1ccc(F)cc1F` [FLUCONAZOLE] the MIC [6] was greater than 16 µg/mL, the MIC [7] was greater than 16 µg/mL and the MIC [8] was greater than 16 µg/mL. For the same compound, the MIC [9] was greater than 16 µg/mL and the MIC [10] was greater than 16 µg/mL.
